ChEMBL document CHEMBL6109121, “Discovery of Novel Sulfonylurea NLRP3 Inflammasome Inhibitor for the Treatment of Multiple Inflammatory Diseases” (J Med Chem, 2025)
Active and inactive are the calls of the source. No cut-off for these calls is given here.

Tests used:
[1] = Inhibition of NLRP3 inflammasome activation in LPS/ATP-stimulated male C57BL/6J mouse BMDM cells assessed as inhibition of IL-1beta secretion […] for 4 hrs followed by compound administration for 30 mins and measured after 1 hrs of ATP addition by ELISA; format: cell-based
[2] = Cytotoxicity against male C57BL/6J mouse BMDM cells; format: functional
[3] = Inhibition of NLRP3 inflammasome activation in human THP-1 cells assessed as inhibition of IL-1beta release; format: cell-based
[4] = system: Mus musculus; experiment: Effect on TNF-alpha level in serum of LPS/ATP-induced acute peritonitis male C57BL/6J mouse model at 20 mg/kg, po preadministered with compound for 1 hrs followed by LPS addition for 2 hrs and measured 12 hrs post ATP administration by ELISA; format: functional, organism-based; details: time 13.0 hrs
[5] = system: Mus musculus; experiment: Antidiabetic activity in HFD-fed STZ-induced diabetic kidney disease male C57BL/6J mouse model assessed as improvement of glucose tolerance at 20 mg/kg fed with high fat diet for 4 weeks followed by STZ administration for 5 days further administered with compound via gavage for 6 weeks and measured after 120 mins of glucose administration by OGTT; format: functional, organism-based; details: time 60600.0 min
[6] = system: Mus musculus; experiment: Antidiabetic activity in HFD-fed STZ-induced diabetic kidney disease male C57BL/6J mouse model assessed as reduction in macrophage infiltration in kidney at 20 mg/kg fed with high fat diet for 4 weeks followed by STZ administration for 5 days and measured 6 weeks post compound administration via gavage by F4/80 immunostaining based analysis; format: functional, organism-based
[7] = system: Mus musculus; experiment: Anti-colitis activity in DSS-induced acute ulcerative colitis male C57BL/6J mouse model assessed as reduction in body weight loss at 5 mg/kg, po preadministered with DSS for 7 days followed by 3 days of drinking water and measured after 10 days of compound administration; format: functional, organism-based; details: time 10.0 day
[8] = system: Mus musculus; experiment: Anti-colitis activity in DSS-induced acute ulcerative colitis male C57BL/6J mouse model assessed as improvement in stool consistency at 5 mg/kg, po preadministered with DSS for 7 days followed by 3 days of drinking water and measured after 10 days of compound administration; format: functional, organism-based; details: time 10.0 day
[9] = system: Mus musculus; experiment: Anti-colitis activity in DSS-induced acute ulcerative colitis male C57BL/6J mouse model assessed as reduction in fecal bleeding at 5 mg/kg, po preadministered with DSS for 7 days followed by 3 days of drinking water and measured after 10 days of compound administration; format: functional, organism-based; details: time 10.0 day
[10] = system: Mus musculus; experiment: Anti-colitis activity in DSS-induced acute ulcerative colitis male C57BL/6J mouse model assessed as decrease in disease activity index score at 5 mg/kg, po preadministered with DSS for 7 days followed by 3 days of drinking water and measured after 10 days of compound administration; format: functional, organism-based; details: time 10.0 day
[11] = system: Mus musculus; experiment: Anti-colitis activity in DSS-induced acute ulcerative colitis male C57BL/6J mouse model assessed as increase in colon length at 5 mg/kg, po preadministered with DSS for 7 days followed by 3 days of drinking water and measured after 10 days of compound administration; format: functional, organism-based; details: time 10.0 day
[12] = molecular target: NACHT, LRR and PYD domains-containing protein 3 (Mus musculus) (UniProt Q8R4B8); details: C57BL/6J, dose 20.0 mg/kg, route po, time 13.0 hrs
NACHT, LRR and PYD domains-containing protein 3 (Mus musculus), sequence (Q8R4B8 whole entry, the tested form may be a part): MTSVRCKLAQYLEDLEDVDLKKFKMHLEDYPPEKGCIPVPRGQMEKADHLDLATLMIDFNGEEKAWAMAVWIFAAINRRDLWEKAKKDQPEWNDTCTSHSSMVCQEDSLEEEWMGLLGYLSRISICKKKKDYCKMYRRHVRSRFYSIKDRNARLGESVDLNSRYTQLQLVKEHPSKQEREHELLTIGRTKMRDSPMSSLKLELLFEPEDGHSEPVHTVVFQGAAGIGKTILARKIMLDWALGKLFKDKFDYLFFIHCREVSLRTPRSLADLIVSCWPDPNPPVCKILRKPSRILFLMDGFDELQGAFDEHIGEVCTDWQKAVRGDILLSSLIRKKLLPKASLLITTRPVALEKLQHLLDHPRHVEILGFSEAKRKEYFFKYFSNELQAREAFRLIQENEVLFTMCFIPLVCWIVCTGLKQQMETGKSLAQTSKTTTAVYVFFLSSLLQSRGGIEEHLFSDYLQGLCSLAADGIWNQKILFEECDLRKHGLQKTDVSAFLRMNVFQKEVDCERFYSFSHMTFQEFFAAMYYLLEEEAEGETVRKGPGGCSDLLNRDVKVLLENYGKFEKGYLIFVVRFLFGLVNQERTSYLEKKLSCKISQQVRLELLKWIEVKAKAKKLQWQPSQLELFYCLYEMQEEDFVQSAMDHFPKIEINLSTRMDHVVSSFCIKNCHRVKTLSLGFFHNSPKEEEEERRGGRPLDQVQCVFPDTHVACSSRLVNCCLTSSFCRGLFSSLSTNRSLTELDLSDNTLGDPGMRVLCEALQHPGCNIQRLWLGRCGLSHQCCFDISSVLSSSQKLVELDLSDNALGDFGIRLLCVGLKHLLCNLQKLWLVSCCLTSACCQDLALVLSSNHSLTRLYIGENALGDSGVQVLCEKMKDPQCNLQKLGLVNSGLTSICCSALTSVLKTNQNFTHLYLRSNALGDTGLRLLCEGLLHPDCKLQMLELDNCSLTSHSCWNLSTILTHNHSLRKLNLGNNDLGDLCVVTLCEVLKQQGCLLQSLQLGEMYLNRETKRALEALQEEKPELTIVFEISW

Row | SMILES | IC50 [1] | CC50 [2] | further results
1 | CN1CCC(N(C)S(=O)(=O)NC(=O)Nc2cc(C(C)(C)C)ccc2-c2ccc(C(C)(C)C)cc2)CC1 | > 50 µM | 10.2 µM | –
2 | O=C(Nc1c2c(cc3c1CCC3)CCC2)NS(=O)(=O)N1CCC(F)(F)CC1 | 1.12 µM | > 100 µM | –
3 | CN(c1ccncc1)S(=O)(=O)NC(=O)Nc1c2c(cc3c1CCC3)CCC2 | 4.43 µM | > 100 µM | –
4 | C=C(c1ccccc1)c1ccccc1NC(=O)NS(=O)(=O)c1cc(C(C)(C)O)co1 | 19.8 µM | > 100 µM | –
5 | CN1CCC(N(C)S(=O)(=O)NC(=O)Nc2cccc3c2OCO3)CC1 | > 50 µM | > 100 µM | –
6 | CC(C)(O)c1coc(S(=O)(=O)NC(=O)Nc2ccccc2C(=O)c2ccoc2)c1 | > 50 µM | > 100 µM | –
7 | Cn1cc(NS(=O)(=O)NC(=O)Nc2c3c(cc4c2CCC4)CCC3)cn1 | 0.155 µM | > 100 µM | –
8 | O=C(Nc1c2c(cc3c1CCC3)CCC2)NS(=O)(=O)N1CCN2CCC1CC2 | 0.185 µM | > 100 µM | –
9 | CN1CCC(N(C)S(=O)(=O)NC(=O)Nc2ccccc2C(=O)c2ccccc2)CC1 | 18 µM | > 100 µM | –
10 | CC(C)(O)c1coc(S(=O)(=O)NC(=O)Nc2ccccc2Sc2ccccc2)c1 | 35.1 µM | > 100 µM | –
11 | CC(C)(O)c1coc(S(=O)(=O)NC(=O)Nc2ccccc2C(=O)N2CCCC2)c1 | 19.1 µM | > 100 µM | –
12 | O=C(Nc1c2c(cc3c1CCC3)CCC2)NS(=O)(=O)Nc1cnn(C2CCOCC2)c1 | 0.139 µM | > 100 µM | –
13 | CN1CCC(n2cc(NS(=O)(=O)NC(=O)Nc3c4c(cc5c3CCC5)CCC4)cn2)CC1 | 2.99 µM | > 100 µM | –
14 | CC(C)(O)c1coc(S(=O)(=O)NC(=O)Nc2ccccc2C(=O)c2ccccn2)c1 | > 50 µM | > 100 µM | –
15 | CC(C)(O)c1coc(S(=O)(=O)NC(=O)Nc2ccccc2C(=O)c2ccccc2)c1 | 3.82 µM | > 100 µM | –
16 | O=C(Nc1c2c(cc3c1CCC3)CCC2)NS(=O)(=O)N1CCc2ccccc2C1 | 0.317 µM | > 100 µM | –
17 | CN1CCC(N(C)S(=O)(=O)NC(=O)Nc2ccc3c(c2)Cc2ccccc2-3)CC1 | > 50 µM | > 100 µM | –

More lines, main results first:

Row | IC50 [1] | SMILES | CC50 [2] | further results
18 | > 50 µM | CC(C)(O)c1coc(S(=O)(=O)NC(=O)Nc2ccccc2C(=O)N2CCOCC2)c1 | > 100 µM | –
19 | 0.979 µM | CN1CCC(NS(=O)(=O)NC(=O)Nc2c3c(cc4c2CCC4)CCC3)CC1 | > 100 µM | –
20 | > 50 µM | CN1CCC(N(C)S(=O)(=O)NC(=O)Nc2cccc3c2oc2ccccc23)CC1 | > 100 µM | –
21 | 0.036 µM | CC(C)(O)c1coc(S(=O)(=O)NC(=O)Nc2c3c(cc4c2CCC4)CCC3)c1 | – | IC50 [3]: 0.058 µM; Activity [4]: inactive; Activity [5]: inactive; Activity [6]: inactive; Activity [7]: Active; Significant Difference Not Observed; Activity [8]: Active; Activity [9]: Active; Activity [10]: Active; Activity [11]: inactive; inhibition [12]: Active
22 | > 50 µM | CN(C)C(=O)c1ccccc1NC(=O)NS(=O)(=O)c1cc(C(C)(C)O)co1 | > 100 µM | –
23 | > 50 µM | CC(C)(O)c1coc(S(=O)(=O)NC(=O)Nc2ccccc2Cc2ccccc2)c1 | > 100 µM | –
24 | > 50 µM | CC(C)(O)c1coc(S(=O)(=O)NC(=O)Nc2ccccc2Oc2ccccc2)c1 | > 100 µM | –
25 | > 50 µM | Cc1ccc2cccc(NC(=O)NS(=O)(=O)N(C)C3CCN(C)CC3)c2n1 | > 100 µM | –
26 | 0.122 µM | CN1CCC(N(C)S(=O)(=O)NC(=O)Nc2c3c(cc4c2CCC4)CCC3)C1 (centres undefined) | > 100 µM | –
27 | 2.9 µM | CC(C)N1CCC(NS(=O)(=O)NC(=O)Nc2c3c(cc4c2CCC4)CCC3)CC1 | > 100 µM | –
28 | 5.37 µM | CC(=O)N1CCC(NS(=O)(=O)NC(=O)Nc2c3c(cc4c2CCC4)CCC3)CC1 | > 100 µM | –
29 | > 50 µM | CN1CCC(N(C)S(=O)(=O)NC(=O)Nc2cccc3c2C(=O)c2ccccc2-3)CC1 | > 100 µM | –
30 | 2.03 µM | O=C(Nc1c2c(cc3c1CCC3)CCC2)NS(=O)(=O)N1CCNC2(CC2)C1 | > 100 µM | –
31 | 0.724 µM | CCN1CCC(N(C)S(=O)(=O)NC(=O)Nc2c3c(cc4c2CCC4)CCC3)CC1 | > 100 µM | –
32 | 1.95 µM | O=C(Nc1c2c(cc3c1CCC3)CCC2)NS(=O)(=O)NC1CCN(C2CC2)CC1 | > 100 µM | –
33 | 0.544 µM | CN(C1CCOCC1)S(=O)(=O)NC(=O)Nc1c2c(cc3c1CCC3)CCC2 | > 100 µM | –
34 | > 50 µM | CN1CCC(N(C)S(=O)(=O)NC(=O)Nc2cccc3c2NC(=O)C3)CC1 | > 100 µM | –
35 | > 50 µM | CN(C1CCN(Cc2ccccc2)CC1)S(=O)(=O)NC(=O)Nc1c2c(cc3c1CCC3)CCC2 | > 100 µM | –
